According to paper PMC5411959, “Potential Antiosteoporotic Natural Product Lead Compounds That Inhibit 17β-Hydroxysteroid Dehydrogenase Type 2” (Journal of Natural Products, 2017):
Several values for one entry are separate records, joined by “and”; a condition that tells them apart may be missing. Equal entries are not always repeated. Where two headings read alike, the source gives them in different places.

Tests used:
human 17β-HSD2 = target: T1, human 17β-HSD2 (Homo sapiens, UniProt P37059); test: 17β-HSD2 activity assay using lysates of HEK-293 cells expressing the recombinant human enzyme; format: biochemical; conditions: for remaining activity at 20 µM: read-out: 17β-HSD2 remaining activity at 20 μM (% of control); for 17β-HSD2 inhibition (in words): tested at 20 μM; for IC50: HEK-293 lysates, 200 nM estradiol, 500 μM NAD+, 10 min 37 °C;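 on all read-outs here: conversion of tritium-labelled estradiol (200 nM, with 500 µM NAD+, 10 min) quantified after TLC separation by scintillation counting, at least three independent measurements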
T1 construct: expressed in transfected cells; host or cells: HEK-293 (ATCC), used as cell lysate
T1 sequence (P37059 1-387): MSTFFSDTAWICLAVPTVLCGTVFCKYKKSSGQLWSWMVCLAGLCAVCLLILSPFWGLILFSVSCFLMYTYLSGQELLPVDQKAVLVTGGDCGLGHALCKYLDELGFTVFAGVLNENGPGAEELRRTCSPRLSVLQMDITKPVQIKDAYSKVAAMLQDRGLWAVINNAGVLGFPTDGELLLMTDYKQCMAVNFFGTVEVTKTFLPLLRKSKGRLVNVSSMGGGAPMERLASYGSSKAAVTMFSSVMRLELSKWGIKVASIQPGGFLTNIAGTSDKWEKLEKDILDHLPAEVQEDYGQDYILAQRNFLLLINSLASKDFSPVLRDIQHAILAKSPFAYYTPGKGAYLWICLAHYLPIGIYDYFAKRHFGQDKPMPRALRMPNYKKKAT

17β-HSD2 = tested on: 17β-HSD2; parameters: method as in PMID 18533708; conditions: cited from earlier work; for activity: 40 μM, read-out: inhibition of 17β-HSD2: % residual activity at 40 μM; for activity / IC50: mean ± SD; for classification (17β-HSD2 inhibition): flavonoid SAR model, Table 4; for IC50: read-out: inhibition of 17β-HSD2: IC50 (μM)
human 17β-HSD1 = target: T2, human 17β-HSD1 (Homo sapiens, UniProt P14061); test: 17β-HSD1 activity assay using lysates of HEK-293 cells expressing the recombinant human enzyme; format: biochemical; conditions: for selectivity factor: 17β-HSD1 versus 17β-HSD2; for IC50: HEK-293 lysates, 200 nM estrone, 500 μM NADPH; for 17β-HSD1 inhibition (in words; n.i. = no inhibition): screened at 20 μM
T2 construct: expressed in transfected cells; host or cells: HEK-293 (ATCC), used as cell lysate
T2 sequence (P14061 1-328): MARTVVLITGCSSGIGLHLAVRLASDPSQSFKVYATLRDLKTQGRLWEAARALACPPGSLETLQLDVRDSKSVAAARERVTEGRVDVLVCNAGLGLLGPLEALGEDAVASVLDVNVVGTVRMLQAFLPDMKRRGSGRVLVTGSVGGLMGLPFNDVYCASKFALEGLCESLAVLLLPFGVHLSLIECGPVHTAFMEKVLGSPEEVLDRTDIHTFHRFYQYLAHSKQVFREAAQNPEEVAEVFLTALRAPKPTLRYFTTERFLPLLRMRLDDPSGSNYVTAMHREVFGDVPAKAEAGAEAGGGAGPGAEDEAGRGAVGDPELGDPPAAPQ

[1] = 20 μM compound, % of vehicle control

NC(=O)Cc1ccc(O)c(Cl)c1 [S11, 2-(3-chloro-4-hydroxyphenyl)acetamide]
remaining activity at 20 µM (human 17β-HSD2; [1]): 80 ± 10%
17β-HSD2 inhibition (in words) (human 17β-HSD2): did not inhibit

O=C1CC(c2ccccc2)Oc2ccccc21 (stereo not shown) [compound 19, flavanone]
activity (17β-HSD2): 70.7 ± 2.6%
classification (17β-HSD2 inhibition) (17β-HSD2): inactive^24

COc1cc(C)cc2oc3ccc(O)c(C(=O)O)c3c(=O)c12 [S10, 2-hydroxy-8-methoxy-6-methyl-9-oxo-9H-xanthene-1-carboxylic acid]
17β-HSD2 remaining activity at 20 μM (% of control) (human 17β-HSD2; [1]): 64 ± 5%

COc1cc([C@H]2OC[C@H]3[C@@H]2CO[C@@H]3c2ccc(O)c(OC)c2)ccc1O [compound 7, pinoresinol]
remaining activity at 20 µM (human 17β-HSD2): 42 ± 5%

pestalactam A [S13]
17β-HSD2 remaining activity at 20 μM (% of control) (human 17β-HSD2; [1]): 85 ± 11%

COc1cc(-c2cc(=O)c3c(O)c(OC)c(O)cc3o2)ccc1O [compound 5, jaceosidin]
IC50 (human 17β-HSD2): 9.3 µM and 9.27 µM
classification (17β-HSD2 inhibition) (human 17β-HSD2; flavonoid SAR model, Table 4): active

CCOC(=O)c1cc(O)c(O)c(O)c1 [S1, ethyl gallate]
remaining activity at 20 µM (human 17β-HSD2; [1]): 60 ± 6%

O=C1CC(c2ccc(O)cc2)Oc2ccccc21 (stereo not shown) [compound 21, 4´-hydroxyflavanone]
activity (17β-HSD2): 63.6 ± 3.5%
classification (17β-HSD2 inhibition) (17β-HSD2): inactive^24

O=C1CC(c2ccccc2O)Oc2ccccc21 (stereo not shown) [compound 20, 2´-hydroxyflavanone]
activity (17β-HSD2): 50.7 ± 0.5%
classification (17β-HSD2 inhibition) (17β-HSD2): inactive^24

O=c1cc(-c2ccccc2)oc2ccccc12 [compound 25, flavone]
activity (17β-HSD2): 63.9 ± 0.6%
classification (17β-HSD2 inhibition) (17β-HSD2): inactive^24

CC(Cc1ccc(O)c(O)c1)C(C)Cc1ccc(O)c(O)c1 (stereo not shown) [compound 1, nordihydroguaiaretic acid]
IC50 (human 17β-HSD2): 0.38 ± 0.04 µM
times more active toward 17β-HSD2 than 17β-HSD1 (human 17β-HSD1): 15 times
selectivity factor (human 17β-HSD1): 15
selectivity over 17β-HSD1 (human 17β-HSD1; 17β-HSD2 over 17β-HSD1): ≥ 8 fold
IC50 (human 17β-HSD1): 5.5 ± 1.3 µM

COc1cc(/C=C2\N=C(N)NC2=O)ccc1O [S14, polyandrocarpamine A]
remaining activity at 20 µM (human 17β-HSD2; [1]): 101 ± 7%

COc1ccc([C@@H]2CC(=O)c3c(O)cc(O)cc3O2)cc1O [compound 24, hesperetin]
activity (17β-HSD2): 36.4 ± 1.7%
classification (17β-HSD2 inhibition) (17β-HSD2): inactive^24

O=C(/C=C/c1ccc(O)c(O)c1)O[C@H](Cc1ccc(O)c(O)c1)C(=O)O [compound 11, rosmarinic acid]
IC50 (human 17β-HSD2): 3.72 ± 0.17 µM
17β-HSD1 inhibition (in words; n.i. = no inhibition) (human 17β-HSD1): n.i. ^a

O=C(O)Cc1ccc(O)cc1 [S15, 2-(4-hydroxyphenyl)acetic acid]
remaining activity at 20 µM (human 17β-HSD2; [1]): 108 ± 5%
17β-HSD2 inhibition (in words) (human 17β-HSD2): did not inhibit

O=C(/C=C/c1ccc(O)c(O)c1)c1ccc(O)cc1O [compound 10, butein]
IC50 (human 17β-HSD2): 7.3 ± 2.7 µM
fold less active than 6 (17β-HSD2 IC50) (human 17β-HSD2; compared with compound 6): 20 fold

COCCNC(=O)Cc1ccc(O)c(Cl)c1 [compound 14, 2-(3-chloro-4-hydroxyphenyl)-N-(2-methoxyethyl)acetamide]
remaining activity at 20 µM (human 17β-HSD2; [1]): 37 ± 3%
17β-HSD2 inhibition (in words) (human 17β-HSD2): moderately active

CC1(C)CC[C@]2(C(=O)O)CC[C@]3(C)C(=CC[C@@H]4[C@@]5(C)CC[C@H](O)C(C)(C)[C@@H]5CC[C@]43C)[C@@H]2C1 [compound 2, oleanolic acid]
remaining activity at 20 µM (human 17β-HSD2): 49 ± 6%

COC(=O)c1cc2c(c(O)c1OC)[C@H](C)C[C@@H](O)[C@H]2[C@@H](C)CCC=C(C)C [S18, methyl (5R,7R,8S)-4,7-dihydroxy-3-methoxy-5-methyl-8-((S)-6-methylhept-5-en-2-yl)-5,6,7,8-tetrahydronaphthalene-2-carboxylate]
17β-HSD2 remaining activity at 20 μM (% of control) (human 17β-HSD2; [1]): 59 ± 7%

CCCCNC(=O)Cc1ccc(O)c(Cl)c1 [compound 15, N-butyl-2-(3-chloro-4-hydroxyphenyl)acetamide]
remaining activity at 20 µM (human 17β-HSD2; [1]): 33 ± 6%
17β-HSD2 inhibition (in words) (human 17β-HSD2): moderately active

O=C(Cc1ccc(O)c(Cl)c1)NCc1ccccc1Cl [compound 18, 2-(3-chloro-4-hydroxyphenyl)-N-(2-chlorobenzyl)acetamide]
IC50 (human 17β-HSD2): 0.78 ± 0.16 µM
remaining activity at 20 µM (human 17β-HSD1; 20 μM compound, read-out: 17β-HSD1 remaining activity at 20 μM): 54.8 ± 5.8%
selectivity factor (human 17β-HSD1): ∼25

O=c1c(-c2ccc(O)cc2)coc2cc(O)ccc12 [compound 28, daidzein]
activity (17β-HSD2): 58.3 ± 6.1%
classification (17β-HSD2 inhibition) (17β-HSD2): inactive^24

NC(=O)Cc1ccc(O)cc1 [S16, 2-(4-hydroxyphenyl)acetamide]
remaining activity at 20 µM (human 17β-HSD2; [1]): 110 ± 10%
17β-HSD2 inhibition (in words) (human 17β-HSD2): did not inhibit

O=C(O)Cc1ccc(O)c(Cl)c1 [S12, 2-(3-chloro-4-hydroxyphenyl)acetic acid]
remaining activity at 20 µM (human 17β-HSD2): 88 ± 7%

O=c1c(O)c(-c2ccc(O)c(O)c2)oc2cc(O)cc(O)c12 [compound 31, quercetin]
classification (17β-HSD2 inhibition) (17β-HSD2): active^24
IC50 (17β-HSD2): 1.54 ± 0.22 µM

COc1cc(CCC(C)=O)ccc1O [S2, vanillyl acetone]
17β-HSD2 remaining activity at 20 μM (% of control) (human 17β-HSD2; [1]): 106 ± 9%

O=C(Cc1ccc(O)c(Cl)c1)NCc1ccccc1 [compound 16, N-benzyl-2-(3-chloro-4-hydroxyphenyl)acetamide]
IC50 (human 17β-HSD2): 3.42 ± 0.74 µM
17β-HSD1 inhibition (in words; n.i. = no inhibition) (human 17β-HSD1): n.i.

O=C(/C=C/c1ccc(O)cc1)c1ccc(O)cc1O [compound 6, isoliquiritigenin]
IC50 (human 17β-HSD2): 0.36 ± 0.08 µM

O=c1c(O)c(-c2ccc(O)cc2)oc2cc(O)cc(O)c12 [compound 30, kaempferol]
classification (17β-HSD2 inhibition) (17β-HSD2): active^24
IC50 (17β-HSD2): 0.36 ± 0.04 µM

O=C(O)/C=C/c1ccc(O)c(O)c1 [S9, caffeic acid]
remaining activity at 20 µM (human 17β-HSD2; [1]): 58 ± 13%

O=c1cc(-c2ccccc2)oc2cc(O)ccc12 [compound 26, 7-hydroxyflavone]
activity (17β-HSD2): 23.1 ± 1.1%
classification (17β-HSD2 inhibition) (17β-HSD2): weak^24
IC50 (17β-HSD2): > 20 µM

O=c1cc(-c2ccccc2)oc2cc(O)cc(O)c12 [compound 27, chrysin]
activity (17β-HSD2): 32.8 ± 5.1%
classification (17β-HSD2 inhibition) (17β-HSD2): inactive^24

O=c1c2c(O)cc(O)cc2oc2oc3cc(O)ccc3c12 [compound 8, lupinalbin A]
IC50 (human 17β-HSD1): 0.049 ± 0.019 µM

NC(=O)c1cccnc1 [S7, nicotinamide]
remaining activity at 20 µM (human 17β-HSD2; [1]): 106 ± 12%

O=c1cc(-c2ccc(O)cc2)oc2cc(O)cc(O)c12 [compound 29, apigenin]
activity (17β-HSD2): 25.2 ± 0.9%
classification (17β-HSD2 inhibition) (17β-HSD2): weak^24
IC50 (17β-HSD2): > 20 µM

CCN(CC)CCCC(C)Nc1ccnc2cc(Cl)ccc12 (racemic) [S17, (±)-chloroquine, reference compound]
17β-HSD2 remaining activity at 20 μM (% of control) (human 17β-HSD2; [1]): 111 ± 13%

O=C(/C=C/c1ccc(O)c(O)c1)O[C@@H]1C[C@](O)(C(=O)O)C[C@@H](O)[C@H]1O [S8, chlorogenic acid]
remaining activity at 20 µM (human 17β-HSD2; [1]): 97 ± 10%

COc1cc(CNC(=O)CCCC/C=C/C(C)C)ccc1O [S6, capsaicin]
remaining activity at 20 µM (human 17β-HSD2): 53 ± 6%

CCCCOC(=O)c1cc(O)c(O)c(O)c1 [S3, butyl gallate]
remaining activity at 20 µM (human 17β-HSD2; [1]): 56 ± 5%

O=C1CC(c2ccccc2)Oc2ccc(O)cc21 (stereo not shown) [compound 22, 6-hydroxyflavanone]
activity (17β-HSD2): 42.5 ± 1.8%
classification (17β-HSD2 inhibition) (17β-HSD2): inactive^24

O=c1c(-c2ccc(O)cc2)coc2cc(O)cc(O)c12 [compound 32, genistein]
classification (17β-HSD2 inhibition) (17β-HSD2): active^24

C=CCc1ccc(O)c(OC)c1 [S4, eugenol]
remaining activity at 20 µM (human 17β-HSD2): 94 ± 11%

O=C1C[C@@H](c2ccc(O)cc2)Oc2cc(O)cc(O)c21 [compound 23, naringenin]
classification (17β-HSD2 inhibition) (17β-HSD2): active^24
IC50 (17β-HSD2): 14.4 ± 4.5 µM

COc1ccc(-c2coc3cc(O)cc(O)c3c2=O)cc1 [compound 33, biochanin A]
classification (17β-HSD2 inhibition) (17β-HSD2): active^24
IC50 (17β-HSD2): 9.9 ± 1.87 µM

COc1cc(/C=C/C(=O)O)ccc1O [S5, ferulic acid]
17β-HSD2 remaining activity at 20 μM (% of control) (human 17β-HSD2; [1]): 79 ± 10%
